Values quoted from earlier work as cited in article PMC6061410 (Clinical Drug Investigation, 2018).

Settings: cited from earlier work

In the case of `C[C@@H](Oc1ccc(S(C)(=O)=O)cc1C(=O)N1C[C@@H]2C[C@]2(c2cc(C(F)(F)F)on2)C1)C(F)(F)F` [BI 425809], the “Adjusted gMean ratio Cmax, tablet fasted vs. oral solution fasted” value (90% CI 45.1–55.4) is given as 50.0%, the “Adjusted gMean ratio AUC0–tz, tablet fasted vs. oral solution fasted” value (90% CI 74.0–87.6) is given as 80.5% and the “Adjusted gMean ratio AUC0–tz, tablet fed vs. strongly fasted” value (high-fat/high-calorie breakfast ~ 1000 kcal, 90% CI 115.7–137.0) is given as 125.9%. The “Adjusted gMean ratio Cmax, tablet fed vs. strongly fasted” value (high-fat/high-calorie breakfast ~ 1000 kcal, 90% CI 128.3–157.4) was 142.1%, the “increase in AUC, high-fat/high-calorie meal vs. fasted” value (single dose 25 mg tablet) was 26% and the “increase in Cmax, high-fat/high-calorie meal vs. fasted” value (single dose 25 mg tablet) was 42%. The “median time to maximum plasma concentration” value (single doses 0.5–150 mg, oral solution, young healthy male volunteers) was ~ 45 min and the “tolerability of single doses” value (single doses up to 100 mg, oral solution, young healthy male volunteers) was “generally well tolerated”.
